This is an account of results in ChEMBL document CHEMBL1201862, “PubChem BioAssay data set” (2004).

One may read the EC50 as the concentration giving half of the maximal effect. What is called AC50 is the concentration at which the activity in the assay is half-maximal. By IC50 is commonly meant the concentration that inhibits the measured activity by half.

Values joined by “and” are separate entries in the source; they are usually repeats but may differ in a detail not shown here. Equal entries are not always repeated. Active and inactive are the calls of the source.

Sequence of Cytochrome P450 2C9 (P11712 whole entry): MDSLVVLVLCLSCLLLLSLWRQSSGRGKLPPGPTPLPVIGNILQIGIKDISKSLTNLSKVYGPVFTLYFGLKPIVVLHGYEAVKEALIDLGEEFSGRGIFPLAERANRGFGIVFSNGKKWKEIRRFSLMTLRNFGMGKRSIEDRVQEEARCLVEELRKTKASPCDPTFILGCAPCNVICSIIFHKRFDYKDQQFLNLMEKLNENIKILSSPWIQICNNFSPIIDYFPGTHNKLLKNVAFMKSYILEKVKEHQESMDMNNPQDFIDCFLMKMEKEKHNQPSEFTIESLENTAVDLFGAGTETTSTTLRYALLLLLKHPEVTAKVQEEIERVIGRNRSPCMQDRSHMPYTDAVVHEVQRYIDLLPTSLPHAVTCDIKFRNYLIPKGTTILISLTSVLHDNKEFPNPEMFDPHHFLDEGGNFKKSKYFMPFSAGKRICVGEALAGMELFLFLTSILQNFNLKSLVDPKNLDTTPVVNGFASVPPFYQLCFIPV

For the first assay, the system named is H4. The experiment in a line: Luminescence Cell-Based Dose Response HTS to Identify Activators of 5'UTR Stem-Loop Driven Prion Protein mRNA Translation in H4 Neuroglioblastoma Cells. [Related pubchem assays: 1829 (Project Summary), 1814 (Primary HTS)]. Type of assay: functional. To be noted: Homo sapiens.
On to `N#C/C(=C/c1ccc(N2CCCCC2)o1)c1cccc(F)c1`, for which the EC50 was 16.5 µM (active).
Still for that read-out and setting: for `c1ccc(-c2nnsc2Sc2ccccn2)cc1` the value was 16.3 µM (active); for `CCN(CC)CCN1C(=O)C(O)=C(C(=O)c2ccc(OC(C)C)cc2)C1c1cccs1` (stereo not drawn), 35 µM (active).
Regarding `COc1ccc(C2C=C(C)Nc3ncnn32)cc1` (stereo not drawn), the EC50 is > 120 µM (not active).
With `O=C(Cn1cnc2c(cnn2-c2ccccc2)c1=O)NCc1ccccc1`, the EC50 is 89.8 µM (active).
Consider `Cc1ccccc1N(CC(=O)NC1CCCC1)C(=O)c1csnn1`, for which the EC50 is on record as > 120 µM (not active).
The same measure, in the same setting: for `Cc1cc2oc(C(=O)Nc3c(C)n(C)n(-c4ccccc4)c3=O)c(C)c2cc1C` the value was > 120 µM (not active).
Turning to `[O-][n+]1onc2c1CCc1nnccc1-2`, the EC50 is recorded as > 120 µM (not active).
Same read-out and setting: for `COc1ccc(OC)c(-c2csc(NC(=O)C3=NN(c4ccccc4)C(=O)CC3)n2)c1` the value was > 120 µM (not active).

In the next assay the target is Cytochrome P450 2C19 (Homo sapiens, UniProt P33261). Kind of assay: Cytochrome panel assay with activity outcomes. Panel member name: p450-cyp2c19 Compounds with AC50 equal or less than 10 uM are considered active. Type of assay: functional. The following applies: read-out: AC50.
Sequence of Cytochrome P450 2C19 (P33261 whole entry): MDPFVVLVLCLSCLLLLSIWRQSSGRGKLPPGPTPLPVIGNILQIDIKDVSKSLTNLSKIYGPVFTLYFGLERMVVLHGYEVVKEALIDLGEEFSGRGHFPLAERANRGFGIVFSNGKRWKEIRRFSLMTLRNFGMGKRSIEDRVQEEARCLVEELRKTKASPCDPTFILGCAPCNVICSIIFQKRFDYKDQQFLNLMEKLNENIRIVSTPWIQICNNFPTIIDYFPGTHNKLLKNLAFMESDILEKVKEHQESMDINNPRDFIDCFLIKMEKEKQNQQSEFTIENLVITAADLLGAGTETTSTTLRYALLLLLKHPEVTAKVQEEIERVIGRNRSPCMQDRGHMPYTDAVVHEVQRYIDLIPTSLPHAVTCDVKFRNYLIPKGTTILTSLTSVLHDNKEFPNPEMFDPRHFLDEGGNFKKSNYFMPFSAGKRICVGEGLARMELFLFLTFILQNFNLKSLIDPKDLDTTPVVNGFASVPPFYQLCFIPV
As for `c1cncc(-c2nnc3n2C2(CCCCC2)Cc2ccccc2-3)c1`, the AC50 is 44.7 µM (inconclusive).

Tested on in the next assay: not listed separately
The experiment in a line: Luminescence Cell-Based Dose Response HTS to Identify Activators of Luciferase Translation or Activity in H4 […] Cells. [Related pubchem assays: 1829 (Project Summary), 1814 (Primary HTS)]. In kind it is functional.
Conditions: not given
For `N#C/C(=C/c1ccc(N2CCCCC2)o1)c1cccc(F)c1`, the half-maximal effective concentration (EC50) is 0.355 µM (active).
Still for that read-out and setting: for `c1ccc(-c2nnsc2Sc2ccccn2)cc1` the value was 11.7 µM (active); for `CCN(CC)CCN1C(=O)C(O)=C(C(=O)c2ccc(OC(C)C)cc2)C1c1cccs1` (stereo not drawn), 20.1 µM (active); for `COc1ccc(C2C=C(C)Nc3ncnn32)cc1` (stereo not drawn), 50.5 µM (active).
Still for that read-out and setting: under `O=C(Cn1cnc2c(cnn2-c2ccccc2)c1=O)NCc1ccccc1` stands 9.72 µM (active).
Still for that read-out and setting: for `Cc1ccccc1N(CC(=O)NC1CCCC1)C(=O)c1csnn1` the value was > 120 µM (not active).
For `Cc1cc2oc(C(=O)Nc3c(C)n(C)n(-c4ccccc4)c3=O)c(C)c2cc1C`, the EC50 is on record as > 120 µM (not active).
Same read-out and setting: for `[O-][n+]1onc2c1CCc1nnccc1-2` the value was 8.72 µM (active); for `COc1ccc(OC)c(-c2csc(NC(=O)C3=NN(c4ccccc4)C(=O)CC3)n2)c1`, > 120 µM (not active).

Tested on in the next assay: not listed separately
The experiment in a line: Trypanosoma cruzi growth suppression in host cells – NIH3T3 host cells, beta-gal luminescence, confirmation (AID 2044).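 Further: intracellular parasites grown in NIH/3T3 mouse fibroblasts as host cells; luminescent beta-galactosidase reporter signal from transgenic T. cruzi replicating inside host cells; inhibitors lower the luminescence signal.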 Type of assay: functional, cell-based.
Conditions: not given
With `N#C/C(=C/c1ccc(N2CCCCC2)o1)c1cccc(F)c1`, the EC50 is 3.55 µM (active).

Another assay addresses Cytochrome P450 2C9 (Homo sapiens, UniProt P11712).
Conditions: not given
As for `COc1cc(Cl)c(C)cc1NC(=O)CNC(=O)Cn1cnc2ccccc2c1=O`, the AC50 is 10 µM (inconclusive).
Take `COn1c(SC(C)C)nc2ccccc2c1=O`: the AC50 is 17.8 µM (inconclusive).
The same measure, in the same setting: under `C=CCN1/C(=N/C(=O)CC)SC2CS(=O)(=O)CC21` (stereo not drawn) stands 11.2 µM (inconclusive); under `c1cncc(-c2nnc3n2C2(CCCCC2)Cc2ccccc2-3)c1`, 31.6 µM (inconclusive); under `COc1cc(NC(=S)NC(=O)c2c(OC)cccc2OC)ccc1NC(=O)c1cccs1`, 1.41 µM (inconclusive).
With `CC(C)C[C@H]1C(=O)N2CCC[C@@H]2[C@]2(O)O[C@](NC(=O)[C@H]3C=C4c5cccc6[nH]c(Br)c(c56)C[C@H]4N(C)C3)(C(C)C)C(=O)N12`, the AC50 is 12.6 µM (inconclusive) and 15.8 µM (inconclusive).

Tested on in another assay: not listed separately
The experiment in a line: Luminescence Cell-Based Dose Confirmation HTS to Identify Activators of 5'UTR Stem-Loop Driven Alpha-Synuclein mRNA Translation in H4 Neuroglioblastoma Cells. [Related pubchem assays: 1829 (Project Summary), 1814 (Primary HTS)]. Type of assay: functional.
Conditions: not given
Take `N#C/C(=C/c1ccc(N2CCCCC2)o1)c1cccc(F)c1`: the EC50 is 0.141 µM (active).
Still for that read-out and setting: under `c1ccc(-c2nnsc2Sc2ccccn2)cc1` stands 18.3 µM (active); under `CCN(CC)CCN1C(=O)C(O)=C(C(=O)c2ccc(OC(C)C)cc2)C1c1cccs1` (stereo not drawn), 15.7 µM (active).
Regarding `COc1ccc(C2C=C(C)Nc3ncnn32)cc1` (stereo not drawn), the half-maximal effective concentration (EC50) is 19.2 µM (active).
The same measure, in the same setting: for `O=C(Cn1cnc2c(cnn2-c2ccccc2)c1=O)NCc1ccccc1` the value was 8.08 µM (active); for `Cc1ccccc1N(CC(=O)NC1CCCC1)C(=O)c1csnn1`, > 120 µM (not active).
Still for that read-out and setting: under `Cc1cc2oc(C(=O)Nc3c(C)n(C)n(-c4ccccc4)c3=O)c(C)c2cc1C` stands 46.1 µM (active); under `[O-][n+]1onc2c1CCc1nnccc1-2`, 11.4 µM (active); under `COc1ccc(OC)c(-c2csc(NC(=O)C3=NN(c4ccccc4)C(=O)CC3)n2)c1`, > 120 µM (not active).

For a further assay, the target named is T1, Cytochrome P450 1A2 (Homo sapiens, UniProt P05177).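 Further: PubChem cytochrome P450 panel assay, CYP1A2 panel member.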
T1 sequence (P05177 whole entry): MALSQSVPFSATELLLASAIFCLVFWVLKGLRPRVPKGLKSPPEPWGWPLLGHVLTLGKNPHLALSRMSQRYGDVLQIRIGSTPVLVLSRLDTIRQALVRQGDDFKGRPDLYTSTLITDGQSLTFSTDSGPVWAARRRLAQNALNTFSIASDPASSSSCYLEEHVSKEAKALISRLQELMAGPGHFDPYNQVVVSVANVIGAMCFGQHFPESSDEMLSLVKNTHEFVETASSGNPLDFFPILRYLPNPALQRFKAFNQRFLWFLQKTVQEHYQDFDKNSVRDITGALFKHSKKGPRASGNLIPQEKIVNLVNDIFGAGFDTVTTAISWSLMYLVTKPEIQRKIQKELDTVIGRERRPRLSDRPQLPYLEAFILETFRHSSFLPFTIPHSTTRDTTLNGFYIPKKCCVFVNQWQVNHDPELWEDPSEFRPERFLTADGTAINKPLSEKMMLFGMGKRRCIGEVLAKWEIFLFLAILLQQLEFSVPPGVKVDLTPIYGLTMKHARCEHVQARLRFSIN
Conditions: not given
For `c1cncc(-c2nnc3n2C2(CCCCC2)Cc2ccccc2-3)c1`, the half-maximal activity concentration (AC50) is 39.8 µM (inconclusive).

The target of another assay is T2, Rac GTPase-activating protein 1 (Homo sapiens, UniProt Q9H0H5).
T2 sequence (Q9H0H5 whole entry): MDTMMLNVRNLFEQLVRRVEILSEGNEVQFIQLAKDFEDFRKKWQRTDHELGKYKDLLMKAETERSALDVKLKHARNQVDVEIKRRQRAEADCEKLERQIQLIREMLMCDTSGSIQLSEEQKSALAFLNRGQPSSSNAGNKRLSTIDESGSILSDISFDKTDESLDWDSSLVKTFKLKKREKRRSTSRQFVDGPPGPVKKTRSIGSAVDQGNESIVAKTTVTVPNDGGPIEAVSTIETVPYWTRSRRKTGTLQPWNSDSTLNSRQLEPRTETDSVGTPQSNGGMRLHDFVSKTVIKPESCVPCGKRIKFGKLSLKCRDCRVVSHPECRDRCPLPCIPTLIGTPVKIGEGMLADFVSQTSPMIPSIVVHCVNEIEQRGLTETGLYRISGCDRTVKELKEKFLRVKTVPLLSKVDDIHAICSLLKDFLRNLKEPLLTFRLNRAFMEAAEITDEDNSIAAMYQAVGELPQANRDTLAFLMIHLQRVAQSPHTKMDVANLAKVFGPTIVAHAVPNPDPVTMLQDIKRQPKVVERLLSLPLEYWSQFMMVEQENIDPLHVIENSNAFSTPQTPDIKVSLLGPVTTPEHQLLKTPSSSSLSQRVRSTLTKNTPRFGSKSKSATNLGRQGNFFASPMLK
The experiment in a line: blockers of MgcRacGAP-driven Rac1 GTP hydrolysis – biochemical, ADP Hunter fluorescence, primary and confirmatory, confirmation (AID 624330). Type of assay: functional.
Conditions: not given
Take `O=C(c1cc(C2CC2)nn1-c1ccccc1)N1CCN(c2ccc(O)cc2)CC1`: the IC50 is 37.9 µM (active).

Tested on in the next assay: not listed separately
The experiment in a line: NIH3T3 cell viability loss – ATP luminescence, mouse fibroblasts, counter-screen, dose response (AID 2010).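 Further: cells exposed to compound for about 90 hours before reading.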 Type of assay: functional, cell-based. To be noted: NIH3T3. A general note: The purpose of a counterscreen is to sort out artefacts and off-target activity.
For `N#C/C(=C/c1ccc(N2CCCCC2)o1)c1cccc(F)c1`, the EC50 is reported as > 60 µM (not active).
